Data on 1 compound can be found in patent US20070060478A1, “Herbicidal mixtures comprising a safener” (BASF AKTIENGESELLSCHAFT, priority 2005, published 2007).

What all share (format): in vivo
What all share (conditions): 50 g/ha, applied alone

The test system of one series is spring wheat. Put plainly: post-emergence application, damage to crop plants (damage scale 0% to 100%).
The subject of a further series is green foxtail. The experiment in a line: post-emergence application, control of unwanted plants (damage scale 0% to 100%).
Another series relates to pigweed. Described as above.
Another series concerns wild oat. The description is as above.
In another series the test system is durum wheat. Put plainly: post-emergence application, damage to crop plants (damage scale 0% to 100%).

Text for durum wheat: (§1) The mixtures according to the invention were applied pre- or post-emergence (foliar treatment). The herbicidal compounds of component B) and of component C) were applied in the formulation in which they are present as commercially available product.
(§2) In the case of the field trials, application was effected with the aid of a mobile plot sprayer.
(§3) The test period extended over 3 to 8 weeks, and the stands were also observed at later points in time.
(§4) Damage by the herbicidal compositions was evaluated with reference to a scale of 0% to 100% in comparison with untreated control plots. 0 means no damage and 100 means complete destruction of the plants.
Text for green foxtail: as §1, §2, §3, §4
Text for pigweed: as §1, §2, §3, §4
Text for spring wheat: as §1, §2, §3, §4
Text for wild oat: as §1, §2, §3, §4

As to `Cc1c(C(=O)c2cnn(C)c2O)ccc(S(C)(=O)=O)c1C1=NOCC1` [4-[2-methyl-3-(4,5-dihydro-isoxazol-3-yl)-4-methylsulfonyl-benzoyl]-1-methyl-5-hydroxy-1H-pyrazole], the “damages in crop plants” value in the series on spring wheat and with durum wheat was “causes damages” each time. For the same compound, the “control of unwanted plants” value with green foxtail, with pigweed and in the series on wild oat was “in an excellent manner” in each case.
